The test has as its system HepG2 tumor. Nature of the test: Example 2: tumor volume, tumor weight and TGI in HepG2 tumor bearing humanized mice. The class given is in vivo, Mus musculus. Conditions: Example 2, D30. The method, then:
1. Species: Mus musculus • Strain: Advanced immunodeficiency mouse. • (NOD.CgPrkdc^scid Il2rg) • Source: Trineo Biotechnology Co., LTD.
Each group contains six mice. The human hepatocellular carcinoma cell line HepG2 were subcutaneously inoculated to the advanced immune-deficiency mice. Total of 42 mice were included in this study.
2.2. […] The subcutaneous injection volume was […].
3.1. […] The injection was performed using insulin syringe with the dosage of 0.3 mg/kg or 1 mg/kg and the injection volume was 5 mL/kg. […] The reference item was administered for G1. The procedure followed the standards of sample administration. The starting day of test item administration was denoted as the first experimental day (DO).
3.2. […] The injection was performed using insulin syringe with the dosage of 20 mg/kg and injection volume of 10 mL/kg. […] The procedure followed the standards of sample administration.
The measurement was performed from the next day of the inoculation. The tumor volumes were measured and recorded twice a week (Mon., Thur.). Tumor volume was calculated by ellipsoid equation according to the records ((major axis×minor axis×minor axis)×(π/6)).
Tumor volumes were used to calculate tumor growth inhibition (TGI) rates according to the following formula: TGI (%)=[1−(Ti−T0)/(Ci−C0)]×100, where Ti and Ci indicate the mean tumor volume in the treatment groups and vehicle group at the end of the experiment (Day 30). Whereas, T0 and C0 indicate the mean tumor volumes in the treatment group and vehicle group at the beginning of the experiment (Day 0).
Mice were sacrificed by CO2 euthanasia at the end of the study duration, and the connective tissue around tumor was resected. The tumor samples were then weighed and cut equally into three sections if the tumor weight over 400 mg. The tumor tissue was prepared for the isolation of tumor-infiltrating lymphocytes (TILs). The rest of one section was fixed in 10% formaldehyde and embedded in paraffin; the other was stored at a temperature below −70° C.

Substance “anti-hPD-1: Anti-Human PD-1 antibody, Pembrolizumab, Merck & Co., Inc.” displayed a mean tumor volume (mean±SEM, anti-hPD-1 20 mg/kg IP alone (G4)) of 983.84±266.44 mm^3. The “mean tumor volume compared with vehicle (in words)” value (vs vehicle (G1), OBI-3424 high-dose 1 mg/kg (G3), anti-hPD-1 20 mg/kg (G4), combinations G5-G7) is given as “No statistically significant difference”.

These data come from US20240216401A1, “COMBINATION THERAPY BY USING AKR1C3-ACTIVATED COMPOUND WITH IMMUNE CHECKPOINT INHIBITOR” (OBI Pharma, Inc., priority 2021, published 2024).
